# Patent US20230276832A1, “ULTRASONIC PREPARATION METHOD OF PROTEIN-DERIVED PEPTIDE-POLYSACCHARIDE NANOPARTICLES LOADED WITH BIOACTIVE COMPONENTS” (JIANGSU UNIVERSITY, priority 2021, published 2023)
# Experiments:
# [1] = Solubility of quercetin in water; assay type: physicochemical
# Experimental: Determination method: The quercetin concentration in the quercetin-loaded composite nanoparticle dispersion liquid was determined in the same manner as described in the examples, and calculation was done using the standard curve and dilution ratio. And the solubility of quercetin in water was calculated according to the following formula:
# Solubility (μg/mL)=detected quercetin concentration×dilution factor
# [2] = Effect of temperature on stability of quercetin (retention rate); assay type: physicochemical; conditions: water bath 60, 75 and 90° C. for 30 min
# Experimental: Experimental method: The newly prepared free quercetin and quercetin-loaded composite nanoparticle dispersions were placed into glass-sealed bottles and heated in a water bath at 60, 75 and 90° C. for 30 min, respectively. It was then immediately cooled to room temperature at 25° C., and the amount of quercetin remaining in the sample was determined. The retention rate (%) of quercetin was calculated according to the following formula: […]
# [3] = Effect of light (UV 253.7 nm) on stability of quercetin (retention rate); assay type: physicochemical; conditions: after 210 min of ultraviolet light irradiation
# Experimental: Experimental method: The freshly prepared free quercetin and quercetin-loaded composite nanoparticle dispersions were taken into transparent glass bottles in equal volume. It was then placed in a light cabinet of 0.24 m^3 and exposed to light with a wavelength of 253.7 nm, which was generated by a UV lamp with a power of 20 W. After exposure to light for 0, 30, 60, 90, 150, and 210 min, the stability of quercetin in different samples was studied, the residual quercetin content in the samples was determined, and the retention rate of quercetin (%) was calculated according to the following formula: […]
# [4] = DPPH free radical scavenging method; assay type: biochemical; conditions: 100 μM DPPH, 30 min in dark
# Experimental: A 100 μM solution of DPPH (as-is) was prepared in dark using absolute ethanol. A volume of 2 mL DPPH solution was taken out and mixed well with 2 mL of sample solution, and allowed to react in dark at room temperature for 30 min. The absorbance at 517 nm of the mixture was measured using a UV-visible spectrophotometer. Distilled water and absolute ethanol were served as blank controls instead of samples. The formula for calculating the DPPH free radical scavenging rate of the sample was as follows:
# Wherein, A0 represents blank; A1 is the sample with ethanol; A2 is the sample with DPPH solution.
# [5] = Release of quercetin during in vitro gastrointestinal digestion simulation; assay type: in vitro ADME; conditions: for release rate of quercetin: simulated gastric digestion
# Experimental: Experimental method: The pH of 40 mL of freshly prepared free quercetin and quercetin composite nanoparticles dispersion was adjusted to 2.0 with 1 M HCl. After 10 min of preheating in a shaker (37° C., 100 rpm/min), 26.7 mg of pepsin was added and thoroughly mixed for 1 h to initiate simulated gastric digestion. After 1 h of digestion at 37° C., the pH of the pepsin digest was adjusted to 7.4 using 5 M NaOH. 200 mg of bile salts were added and mixed well in a shaker for 10 min. Then 13.6 mg of trypsin was added to start simulated intestinal digestion for 2 h. During the simulated gastrointestinal digestion process, 3 mL of digestion samples were collected at different digestion time (0, 30, 60, 90, 120, 150 and 180 min), and the enzyme was immediately inactivated with liquid nitrogen to terminate the reaction. The content of quercetin was determined, and the release rate (%) of quercetin was calculated according to the following formula: […]
smiles,measurement,setting,value
O=c1c(O)c(-c2ccc(O)c(O)c2)oc2cc(O)cc(O)c12 [quercetin],solubility of quercetin in water,[1],7.05 µg/mL
same,thermal stability of quercetin,[2],poor thermal stability
same,retention rate of quercetin,[3],60.08%
same,DPPH free radical scavenging rate,[4],94.52%
same,quercetin released in the digestive juice,[5]; after subsequent simulated intestinal digestion,90.09%
same,release rate of quercetin,[5]; 60 min,64.06%
same,release rate of quercetin,[5]; first 30 min,42.36%
